The values below come from patent US20240122899A1, “COMPOSITION FOR STIMULATING IMMUNE CELL METABOLISM” (SUNTORY HOLDINGS LIMITED, priority 2021, published 2024).

In experiment [1] the test system is IL-6, IL-12, IL-1β, and IL-10. To be noted: absence of the TLR ligand; ergothioneine concentration 0 or 10 mM; cited from earlier work.
For experiment [2] the following is noted: mice orally administered, versus mice not administered; cited from earlier work.
The test system of experiment [3] is human peripheral blood mononuclear cells (PBMCs). Nature of the experiment: Mitochondrial stress test / oxygen consumption rate (XFe96 flux analyzer) in human PBMCs. It is filed as cell-based. To be noted: final concentration of 10 μM, 30 μM, or 100 μM. As for the experimental part: The effect of the compound (L-ergothioneine) of the present invention on mitochondrial function was analyzed. Ergothioneine was added to human peripheral blood mononuclear cells (PBMCs) under the following conditions. The extracellular oxygen level and pH were measured in real time using an XFe96 flux analyzer (available from Agilent Technologies). XFe technology uses solid-state sensors to simultaneously measure both oxygen consumption rate (OCR) and extracellular acidification rate (ECAR) to determine effects on oxidative phosphorylation (OXPHOS) and glycolysis simultaneously. […] Then, the cells were sequentially exposed to various mitochondrial function inhibitors to evaluate cell metabolism. (Conditions for adding ergothioneine to human PBMCs) Human PBMCs were kept in an XF assay medium (XF RPMI1640 medium). Here, L-ergothioneine was adjusted to a final concentration of 0, 10, 30, or 100 μM. The cells (30,000 cells/50 μL/well) were seeded onto an XF96-well cell culture plate coated with PDL and were centrifuged at 200 g for one minute so that the cells were adhered to the plate. After culturing at 37° C. in the absence of CO2 for 20 minutes, the XF assay medium (130 μL) was added gently, followed by further culturing at 37° C. in the absence of CO2 for 40 minutes. The following mitochondrial stress test was performed on the obtained human PBMCs to which ergothioneine was added. An XF Mit Stress Kit (available from Agilent Technologies) was used for the experiment. […] The results obtained are shown in FIG. 1A (basal respiration), FIG. 1B (ATP production), and FIG. 1C (maximum respiration) to facilitate understanding of a possible mechanism of mitochondria metabolism. […] FIGS. 1A to 1C show the resulting values expressed as mean±standard deviation. A significance test was performed by Dunnett's test (test by multiple comparison assuming equal variance, p-value) using an Excel analysis tool to obtain test results relative to the final concentration (0 μM) of ergothioneine (*: p<0.05, **: p<0.01).

For `C[N+](C)(C)[C@@H](Cc1c[nH]c(=S)[nH]1)C(=O)[O-]` [ergothioneine, L-ergothioneine], the “detection of IL-6, IL-12, IL-1β, and IL-10” value in experiment [1] is “none of IL-6, IL-12, IL-1β, and IL-10 was detected”. In experiment [2], the peritesticular fat weight entry is given as “lower” and the “triglyceride (neutral fat) level in plasma” value is on record as “lower”. In addition, in experiment [3] (FIG. 2), the “oxygen consumption rate (OCR) of human PBMCs over time” value is listed as “increase”. For the same compound, the “OCR related to basal respiration (mitochondrial basal respiration)” value in experiment [3] (relative to 0 μM, FIG. 1A) is reported as “significant increase”. The “OCR related to ATP-related respiration (mitochondrial ATP production)” value in experiment [3] (relative to 0 μM, FIG. 1B) is “significant increase”. Also, in experiment [3] (relative to 0 μM, FIG. 1C), the “OCR related to maximum respiration (mitochondrial maximum respiration)” value is on record as “significant increase”.
